The source made the active and inactive calls. The rule behind the calls is not given here.
Legend:
[1] = Acute toxicity in mouse assessed as mortality at 50 g/Kg, IG measured for 14 days; conditions: in vivo, po, 50000 mg/kg, 336 h, time 14 day
Rattus norvegicus [2] = experiment: (§1) Anti-hyperuricemic activity against potassium oxonate-induced hyperuricemic Sprague-Dawley rat model assessed as clearance of urate measured per body surface area of 0.0311 m2 at 2 mg/kg, po pre-administered via gavage twice daily for 5 times followed by potassium oxonate injection for 1 hrs prior to last dose and measured after 3 hrs; type: functional; conditions: time 123 hrs
Rattus norvegicus [3] = experiment: as §1, with “creatinine” for “urate”; type: functional; conditions: time 123 hrs
Mus musculus = experiment: Anti-hyperouricemic activity in uric acid-induced hyperuricemic Kunming mouse model assessed as decrease in serum uric acid level at 2 to 8 mg/kg, IG pre-administered via gavage twice daily for 5 times followed by uric acid injection for 30 mins prior to last dose by phosphotungstic acid method; type: functional, organism-based; conditions: dose 2-8 mg/kg, time 5.0 day
Rattus norvegicus [4] = experiment: as §1, with “excretion” for “clearance”, “urate per volume of glomerular filtration” for “urate”; type: functional; conditions: time 123 hrs

COc1c(O)cc2oc3cc(O)c(CC=C(C)C)c(O)c3c(=O)c2c1CC=C(C)C [MANGOSTIN]
Activity [1]: Non-Toxic | Activity (Rattus norvegicus [2]): 11.2 mL/min | Activity (Rattus norvegicus [3]): 15.4 mL/min | Activity (Mus musculus): Active | Activity (Rattus norvegicus [4]): 5.8 µmol/L

From ChEMBL document CHEMBL5226379, “Hypouricemic Actions of the Pericarp of Mangosteen in Vitro and in Vivo” (J Nat Prod, 2023)
